Laboratory results: ChEMBL document CHEMBL5131424, “Synthesis and evaluation of antibacterial and trypanocidal activity of derivatives of monensin A” (Bioorg Med Chem Lett, 2022)
≈ marks a conversion by molar mass, not a printed value.

Key:
[1] = Selectivity ratio of GI50 for cytotoxicity against human HL-60 cells to GI50 for antitrypanosomal activity against bloodstream form of Trypanosoma brucei clone 427-221a; type: toxicity, cell-based; conditions: read-out: RatioGI50
[2] = system: Staphylococcus epidermidis; assay: Antibacterial activity against Staphylococcus epidermidis 829/19; type: functional
[3] = system: Staphylococcus epidermidis; assay: Antibacterial activity against Staphylococcus epidermidis 834/19; type: functional
[4] = system: Staphylococcus epidermidis; assay: Antibacterial activity against Staphylococcus epidermidis 840/19; type: functional
[5] = system: Staphylococcus epidermidis; assay: Potency index, ratio of ciprofloxacin MIC to test compound MIC for antibacterial activity against Staphylococcus epidermidis 830/19; type: functional
[6] = system: Staphylococcus epidermidis; assay: Antibacterial activity against Staphylococcus epidermidis 830/19; type: functional
[7] = Selectivity ratio of MIC for cytotoxicity against human HL-60 cells to MIC for antitrypanosomal activity against bloodstream form of Trypanosoma brucei clone 427-221a; type: toxicity, cell-based
HL-60 = assay: (§1) Cytotoxicity against human HL-60 cells assessed as reduction in cell viability measured after 24 hrs by resazurin dye based assay; type: toxicity; conditions: hl-60, 24 h
[8] = as §1; type: toxicity; conditions: HL-60 cells
[9] = system: Staphylococcus epidermidis; assay: Potency index, ratio of ciprofloxacin MIC to test compound MIC for antibacterial activity against Staphylococcus epidermidis 825/19; type: functional
Staphylococcus aureus [10] = assay: Antibacterial activity against Staphylococcus aureus NCTC 4163; type: functional
Escherichia coli [11] = assay: Antibacterial activity against Escherichia coli ATCC 25922; type: functional
[12] = system: Staphylococcus epidermidis; assay: Antibacterial activity against Staphylococcus epidermidis 851/19; type: functional
Pseudomonas aeruginosa [13] = assay: Antibacterial activity against Pseudomonas aeruginosa […]; type: functional
[14] = system: Staphylococcus epidermidis; assay: Antibacterial activity against Staphylococcus epidermidis 848/19; type: functional
Escherichia coli [15] = assay: Antibacterial activity against Escherichia coli NCTC 10538; type: functional
Trypanosoma brucei = assay: Antitrypanosomal activity against bloodstream form of Trypanosoma brucei clone 427-221a measured after 24 hrs by resazurin dye based assay; type: functional
Staphylococcus aureus [16] = assay: Antibacterial activity against Staphylococcus aureus ATCC 25923; type: functional
[17] = system: Staphylococcus epidermidis; assay: Antibacterial activity against Staphylococcus epidermidis 845/19; type: functional
Staphylococcus aureus [18] = assay: Antibacterial activity against Staphylococcus aureus ATCC 6538; type: functional
[19] = system: Staphylococcus epidermidis; assay: Antibacterial activity against Staphylococcus epidermidis ATCC 35984; type: functional
[20] = system: Staphylococcus epidermidis; assay: Potency index, ratio of ciprofloxacin MIC to test compound MIC for antibacterial activity against Staphylococcus epidermidis 845/19; type: functional
Pseudomonas aeruginosa [21] = assay: Antibacterial activity against Pseudomonas aeruginosa ATCC 15442; type: functional
Staphylococcus aureus [22] = assay: Antibacterial activity against Staphylococcus aureus ATCC 29213; type: functional
[23] = system: Staphylococcus epidermidis; assay: Antibacterial activity against Staphylococcus epidermidis 825/19; type: functional
[24] = system: Staphylococcus epidermidis; assay: Antibacterial activity against Staphylococcus epidermidis ATCC 12228; type: functional

SMILES: CO[C@H]([C@H](C)[C@H]1O[C@@]2(CC[C@@](C)([C@H]3CC[C@@](CO)([C@@H]4O[C@@H]([C@H]5O[C@@](O)(COC(=O)Nc6ccccc6)[C@H](C)C[C@@H]5C)C[C@@H]4C)O3)O2)C[C@H](O)[C@H]1C)[C@H](C)C(=O)O
- selectivity ratio [1]: 33.1
- MIC [2]: 0.25 µg/mL (≈ 0.316 µM)
- MIC [3]: 0.5 µg/mL (≈ 0.631 µM)
- MIC [4]: 0.5 µg/mL (≈ 0.631 µM)
- Ratio [5]: <=256
- MIC [6]: 0.25 µg/mL (≈ 0.316 µM)
- selectivity ratio [7]: 100
- MIC (HL-60): 100 µM (≈ 79.2 µg/mL)
- GI50 at 24 h [8]: 8.94 µM
- Ratio [9]: <=256
- MIC (Staphylococcus aureus [10]): 0.25 µg/mL (≈ 0.316 µM)
- MIC (Escherichia coli [11]): > 256 µg/mL
- MIC [12]: 0.5 µg/mL (≈ 0.631 µM)
- MIC (Pseudomonas aeruginosa [13]): > 256 µg/mL
- MIC [14]: 0.5 µg/mL (≈ 0.631 µM)
- MIC (Escherichia coli [15]): > 256 µg/mL
- GI50 (Trypanosoma brucei): 0.27 µM
- MIC (Trypanosoma brucei): 1 µM (≈ 0.792 µg/mL)
- MIC (Staphylococcus aureus [16]): 0.25 µg/mL (≈ 0.316 µM)
- MIC [17]: 0.5 µg/mL (≈ 0.631 µM)
- MIC (Staphylococcus aureus [18]): 0.25 µg/mL (≈ 0.316 µM)
- MIC [19]: 0.5 µg/mL (≈ 0.631 µM)
- Ratio [20]: <=256
- MIC (Pseudomonas aeruginosa [21]): > 256 µg/mL
- MIC (Staphylococcus aureus [22]): 0.25 µg/mL (≈ 0.316 µM)
- MIC [23]: 0.25 µg/mL (≈ 0.316 µM)
- MIC [24]: 0.25 µg/mL (≈ 0.316 µM)

SMILES: CO[C@H]([C@H](C)[C@H]1O[C@@]2(CC[C@@](C)([C@H]3CC[C@@](CO)([C@@H]4O[C@@H]([C@H]5O[C@@](O)(COC(=O)NCCCCl)[C@H](C)C[C@@H]5C)C[C@@H]4C)O3)O2)C[C@H](O)[C@H]1C)[C@H](C)C(=O)O
- selectivity ratio [1]: 5.9
- MIC [2]: 4 µg/mL (≈ 5.05 µM)
- MIC [3]: 4 µg/mL (≈ 5.05 µM)
- MIC [4]: 8 µg/mL (≈ 10.1 µM)
- MIC [6]: 4 µg/mL (≈ 5.05 µM)
- selectivity ratio [7]: 10
- MIC (HL-60): 100 µM (≈ 79.2 µg/mL)
- GI50 at 24 h [8]: 18.1 µM
- MIC (Staphylococcus aureus [10]): 2 µg/mL (≈ 2.52 µM)
- MIC (Escherichia coli [11]): > 256 µg/mL
- MIC [12]: 4 µg/mL (≈ 5.05 µM)
- MIC (Pseudomonas aeruginosa [13]): > 256 µg/mL
- MIC [14]: 8 µg/mL (≈ 10.1 µM)
- MIC (Escherichia coli [15]): > 256 µg/mL
- GI50 (Trypanosoma brucei): 3.05 µM
- MIC (Trypanosoma brucei): 10 µM (≈ 7.92 µg/mL)
- MIC (Staphylococcus aureus [16]): 2 µg/mL (≈ 2.52 µM)
- MIC [17]: 4 µg/mL (≈ 5.05 µM)
- MIC (Staphylococcus aureus [18]): 2 µg/mL (≈ 2.52 µM)
- MIC [19]: 4 µg/mL (≈ 5.05 µM)
- MIC (Pseudomonas aeruginosa [21]): > 256 µg/mL
- MIC (Staphylococcus aureus [22]): 4 µg/mL (≈ 5.05 µM)
- MIC [23]: 2 µg/mL (≈ 2.52 µM)
- MIC [24]: 4 µg/mL (≈ 5.05 µM)

SMILES: CO[C@H]([C@H](C)[C@H]1O[C@@]2(CC[C@@](C)([C@H]3CC[C@@](CO)([C@@H]4O[C@@H]([C@H]5O[C@@](O)(COC(C)=O)[C@H](C)C[C@@H]5C)C[C@@H]4C)O3)O2)C[C@H](O)[C@H]1C)[C@H](C)C(=O)O
- selectivity ratio [1]: 19
- MIC [2]: 1 µg/mL (≈ 1.4 µM)
- MIC [3]: 1 µg/mL (≈ 1.4 µM)
- MIC [4]: 2 µg/mL (≈ 2.8 µM)
- MIC [6]: 1 µg/mL (≈ 1.4 µM)
- selectivity ratio [7]: 10
- MIC (HL-60): 10 µM (≈ 7.15 µg/mL)
- GI50 at 24 h [8]: 5.51 µM
- MIC (Staphylococcus aureus [10]): 2 µg/mL (≈ 2.8 µM)
- MIC (Escherichia coli [11]): > 256 µg/mL
- MIC [12]: 2 µg/mL (≈ 2.8 µM)
- MIC (Pseudomonas aeruginosa [13]): > 256 µg/mL
- MIC [14]: 1 µg/mL (≈ 1.4 µM)
- MIC (Escherichia coli [15]): > 256 µg/mL
- GI50 (Trypanosoma brucei): 0.29 µM
- MIC (Trypanosoma brucei): 1 µM (≈ 0.715 µg/mL)
- MIC (Staphylococcus aureus [16]): 1 µg/mL (≈ 1.4 µM)
- MIC [17]: 2 µg/mL (≈ 2.8 µM)
- MIC (Staphylococcus aureus [18]): 2 µg/mL (≈ 2.8 µM)
- MIC [19]: 2 µg/mL (≈ 2.8 µM)
- MIC (Pseudomonas aeruginosa [21]): > 256 µg/mL
- MIC (Staphylococcus aureus [22]): 2 µg/mL (≈ 2.8 µM)
- MIC [23]: 0.25 µg/mL (≈ 0.35 µM)
- MIC [24]: 1 µg/mL (≈ 1.4 µM)

SMILES: CO[C@H]([C@H](C)[C@H]1O[C@@]2(CC[C@@](C)([C@H]3CC[C@@](CO)([C@@H]4O[C@@H]([C@H]5O[C@@](O)(COC(=O)c6ccccc6)[C@H](C)C[C@@H]5C)C[C@@H]4C)O3)O2)C[C@H](O)[C@H]1C)[C@H](C)C(=O)O
- selectivity ratio [1]: 7
- MIC [2]: 2 µg/mL (≈ 2.57 µM)
- MIC [3]: 1 µg/mL (≈ 1.29 µM)
- MIC [4]: 2 µg/mL (≈ 2.57 µM)
- MIC [6]: 1 µg/mL (≈ 1.29 µM)
- selectivity ratio [7]: 10
- MIC (HL-60): 100 µM (≈ 77.7 µg/mL)
- GI50 at 24 h [8]: 18.3 µM
- MIC (Staphylococcus aureus [10]): 1 µg/mL (≈ 1.29 µM)
- MIC (Escherichia coli [11]): > 256 µg/mL
- MIC [12]: 1 µg/mL (≈ 1.29 µM)
- MIC (Pseudomonas aeruginosa [13]): > 256 µg/mL
- MIC [14]: 2 µg/mL (≈ 2.57 µM)
- MIC (Escherichia coli [15]): > 256 µg/mL
- GI50 (Trypanosoma brucei): 2.62 µM
- MIC (Trypanosoma brucei): 10 µM (≈ 7.77 µg/mL)
- MIC (Staphylococcus aureus [16]): 1 µg/mL (≈ 1.29 µM)
- MIC [17]: 2 µg/mL (≈ 2.57 µM)
- MIC (Staphylococcus aureus [18]): 1 µg/mL (≈ 1.29 µM)
- MIC [19]: 1 µg/mL (≈ 1.29 µM)
- MIC (Pseudomonas aeruginosa [21]): > 256 µg/mL
- MIC (Staphylococcus aureus [22]): 1 µg/mL (≈ 1.29 µM)
- MIC [23]: 0.5 µg/mL (≈ 0.644 µM)
- MIC [24]: 1 µg/mL (≈ 1.29 µM)

SMILES: CCCCNC(=O)OC[C@]1(O)O[C@H]([C@H]2C[C@H](C)[C@H]([C@]3(CO)CC[C@H]([C@]4(C)CC[C@]5(C[C@H](O)[C@@H](C)[C@@H]([C@@H](C)[C@@H](OC)[C@H](C)C(=O)O)O5)O4)O3)O2)[C@@H](C)C[C@H]1C
- selectivity ratio [1]: 24.3
- MIC [2]: 1 µg/mL (≈ 1.3 µM)
- MIC [3]: 2 µg/mL (≈ 2.59 µM)
- MIC [4]: 2 µg/mL (≈ 2.59 µM)
- MIC [6]: 1 µg/mL (≈ 1.3 µM)
- selectivity ratio [7]: 19
- MIC (HL-60): 100 µM (≈ 77.2 µg/mL)
- GI50 at 24 h [8]: 11.4 µM
- MIC (Staphylococcus aureus [10]): 1 µg/mL (≈ 1.3 µM)
- MIC (Escherichia coli [11]): > 256 µg/mL
- MIC [12]: 2 µg/mL (≈ 2.59 µM)
- MIC (Pseudomonas aeruginosa [13]): > 256 µg/mL
- MIC [14]: 2 µg/mL (≈ 2.59 µM)
- MIC (Escherichia coli [15]): > 256 µg/mL
- GI50 (Trypanosoma brucei): 0.47 µM
- MIC (Trypanosoma brucei): 10 µM (≈ 7.72 µg/mL)
- MIC (Staphylococcus aureus [16]): 1 µg/mL (≈ 1.3 µM)
- MIC [17]: 2 µg/mL (≈ 2.59 µM)
- MIC (Staphylococcus aureus [18]): 1 µg/mL (≈ 1.3 µM)
- MIC [19]: 1 µg/mL (≈ 1.3 µM)
- MIC (Pseudomonas aeruginosa [21]): > 256 µg/mL
- MIC (Staphylococcus aureus [22]): 2 µg/mL (≈ 2.59 µM)
- MIC [23]: 1 µg/mL (≈ 1.3 µM)
- MIC [24]: 1 µg/mL (≈ 1.3 µM)
